Experimental data taken from patent publication US20230065814A1, “CONJUGATES OF-ELECTRON-PAIR-DONATING HETEROAROMATIC NITROGEN-COMPRISING COMPOUNDS” (Ascendis Pharma A/S, priority 2019, published 2023).

Assay: In vitro release kinetics (Example 34): cleavage rate of the reversible bond at pH 7.4 and 37° C. in aqueous buffer
Type: physicochemical
Conditions: aqueous sodium phosphate buffer, read-out: t1/2 (pH 7.4) (converted)
Protocol: For soluble examples disappearance of the conjugate was determined by LCMS (UV detection) and fitted with curve fitting software to obtain the preliminary half-life of the release. For insoluble examples (hydrogels) the increase in released heteroaromatic moiety containing molecule in the supernatant was determined by LCMS (UV detection) and used as input for the curve fitting software to obtain the preliminary half-life of the release.
Compounds marked with “**” were synthesized for comparison.

First: CNCCNC(=O)[C@H](CC(=O)n1ncc2ccccc21)N(C)C(=O)CCCCCS(=O)(=O)O [1 h]
Second: C[C@@H](C(=O)NCCCCCC(=O)O)N(C)C(=O)n1nc(C(=O)O)c2ccccc21 [Compound 8c]
The half-life of the first is lower: under 0.000694 days for the first, 13 days for the second.

Going from CCCCOC(=O)n1nc(C(=O)O)c2ccccc21 [Compound 6a] to CCCC(C)OC(=O)n1nc(C(=O)O)c2ccccc21 (stereo not shown) [Compound 6b], the half-life rises from 21 days to 99 days.

Compared with CC(C)(C)OC(=O)n1nc(C(=O)O)c2ccccc21 [Compound 6c], CCCNC(=O)n1nc(C(=O)O)c2ccccc21 [Compound 7i] is higher in half-life: 0.0833 days for the first, over 180 days for the second.

Going from CC(CCC(=O)NCCC(=O)O)OC(=O)n1nc(C(=O)O)c2ccccc21 (stereo not shown) [Compound 6d] to CCN(CC(=O)NCCC(=O)O)C(=O)n1nc(C(=O)O)c2ccccc21 [Compound 7g], the half-life falls from 36 days to 7.7 days.

Going from CC(=O)N[C@H](C(=O)O)[C@H](C)OC(=O)n1nc(C(=O)O)c2ccccc21 [Compound 6e] to CC(C)[C@H](NC(=O)CN(C)C(=O)n1nc(C(=O)O)c2ccccc21)C(=O)O [Compound 7c], the half-life rises from 1 days to over 180 days.

Going from O=C(O)CCNC(=O)[C@H]1CC[C@H](OC(=O)n2nc(C(=O)O)c3ccccc32)CC1 [Compound 6f] to O=C(O)CCCCCNC(=O)[C@@H]1CCCN1C(=O)n1nc(C(=O)O)c2ccccc21 [Compound 8d], the half-life falls from 39 days to 12 days.

First: CCCNC(=O)CN(C)C(=O)n1nc(C(=O)O)c2ccccc21 [Compound 7a]
Second: CCCNC(=O)CCN(C)C(=O)n1nc(C(=O)O)c2ccccc21 [Compound 7d]
The half-life of the first is lower: 3.5 days for the first, over 180 days for the second.

Going from CCC(C)NC(=O)CN(C)C(=O)n1nc(C(=O)O)c2ccccc21 (stereo not shown) [Compound 7b] to CN(C)CCN(C)C(=O)n1nc(C(=O)O)c2ccccc21 [Compound 7j], the half-life falls from 17 days to 0.121 days.

Going from CCN(CC(=O)NC(C)CCCCC(=O)O)C(=O)n1nc(C(=O)O)c2ccccc21 (stereo not shown) [Compound 7e] to CCN(CC(=O)NCCCCCC(=O)O)C(=O)n1nc(C(=O)O)c2ccccc21 [Compound 7f], the half-life falls from 52 days to 9.6 days.

First: CCCNC(=O)CN(CC)C(=O)n1nc(C(=O)O)c2ccccc21 [Compound 7h]
Second: CN(C)CCCN(C)C(=O)n1nc(C(=O)O)c2ccccc21 [Compound 7k]
The half-life of the first is lower: 8.1 days for the first, 164 days for the second.

First: C[C@@H](CC(=O)NCCCCCC(=O)O)NC(=O)CN(C)C(=O)n1nc(C(=O)O)c2ccccc21 [Compound 8a]
Second: C[C@H](NC(=O)CN(C)C(=O)n1nc(C(=O)O)c2ccccc21)C(=O)NCCCCCC(=O)O [Compound 8b]
The half-life of the first is higher: 2.4 days for the first, 0.342 days for the second.

Assay: In vitro release kinetics (Example 59): cleavage rate of the reversible bond at 37° C. in aqueous buffer, conditions A-F
Type: physicochemical
Conditions: aqueous sodium phosphate buffer, pH 7.4
Protocol: The cleavage rate of the reversible bond from conjugates 9a-d, 13a-e and 17b-q was monitored at 37° C. in aqueous buffer (condition A: pH 7.4 60 mM sodium phosphate, 1% acetonitrile, B: pH 7.4 48 mM sodium phosphate, 20% acetonitrile, 0.1% Pluronic F68, C: pH 7.4 48 mM sodium phosphate with 16 mM L-Methionine 2.4 mM EDTA, 0.1% pluronic and 20% acetonitrile, D: pH 7.0 48 mM sodium phosphate with 16 mM L-Methionine 2.4 mM EDTA, 0.1% pluronic and 20% acetonitrile, E: pH 7.4 60 mM sodium phosphate, F: pH 7.4 48 mM sodium phosphate, 20% acetonitrile). For soluble examples disappearance of the conjugate was determined by LCMS (UV detection) and fitted with curve fitting software to obtain the half-life of the release. For insoluble examples (hydrogels) the increase in released axitinib in the supernatant was determined by LCMS (UV detection) and used as input for the curve fitting software to obtain the half-life of the release. Release rates at pH 7.4 for conjugates only incubated at pH 7.0 are estimated to increase by a factor of 2 to 3.
The compounds marked with “*” are not in accordance with the present invention as they were for efficiency reasons not linked to a moiety Z. Nevertheless, they show the release half-lives of such moieties -L^1-.

In order of rising half-life:
1. CCN(CC(=O)NCCOCCOCC(=O)O)C(=O)n1nc(C(=O)O)c2ccccc21 [Compound 13d]  76.8 h
2. C[C@@H](CC(=O)O)NC(=O)C[C@H](C)NC(=O)CN(C)C(=O)n1nc(C(=O)O)c2ccccc21 [Compound 13b]  86.4 h
3. CCN(CC(=O)NCCC(=O)O)C(=O)n1nc(/C=C/c2ccccn2)c2ccc(Sc3ccccc3C(=O)NC)cc21 [Compound 9a]  96 h
4. C[C@@H](CC(=O)N(C)CCC(=O)O)NC(=O)CN(C)C(=O)n1nc(C(=O)O)c2ccccc21 [Compound 13a]  101 h
5. O=C(O)CCCCCNC(=O)CONC(=O)CNC(=O)n1nc(C(=O)O)c2ccccc21 [Compound 13e]  108 h
6. CCN(CC(=O)NCCCCCC(=O)O)C(=O)n1nc(/C=C/c2ccccn2)c2ccc(Sc3ccccc3C(=O)NC)cc21 [Compound 9d]  110 h
7. C[C@@H](CCC(=O)NCCCCCC(=O)O)NC(=O)CN(C)C(=O)n1nc(C(=O)O)c2ccccc21 [Compound 13c]  166 h
8. CNC(=O)c1ccccc1Sc1ccc2c(/C=C/c3ccccn3)nn(C(=O)N(C)CC(=O)N[C@@H](C)CC(=O)O)c2c1 [Compound 9b]  276 h
9. CNC(=O)c1ccccc1Sc1ccc2c(/C=C/c3ccccn3)nn(C(=O)N(C)CC(=O)N[C@H](C(=O)O)C(C)C)c2c1 [Compound 9c]  1130 h

Assay: In vitro release kinetics (Example 69): cleavage rate of the reversible bond at pH 7.4 and 37° C. in aqueous buffer
Type: physicochemical
Conditions: aqueous sodium phosphate buffer
Protocol: The cleavage rate of the reversible bond from conjugates 18, 20, 23 was monitored at pH 7.4 and 37° C. in aqueous buffer (pH 7.4 48 mM sodium phosphate, 20% acetonitrile). Disappearance of the conjugate was determined by LCMS (UV detection) and fitted with curve fitting software to obtain the half-life of the release.

In order of rising half-life:
1. CC(CCCCC(=O)O)NC(=O)CN(C)C(=O)n1ccnc1 (stereo not shown) [Compound 18]  40.8 h
2. COC(=O)c1ccc2ncn(C(=O)N(C)CC(=O)NC(C)CCCCC(=O)O)c2c1 (stereo not shown) [Compound 20]  43.2 h
3. CN(C)CCN(C)C(=O)n1ccc2cc(C(=O)O)ccc21 [Compound 23]  744 h
